Results taken from PubChem BioAssay AID224 (DTP/NCI, 2004).
Values joined by “and” are separate entries in the source; they are usually repeats but may differ in a detail not shown here. Equal values may be shown once. Inconclusive results and toxic doses are left out. How the source made its calls: active means survival T/C of 150% or more; inactive means T/C below 125% in these data.

System: P335 leukemia ip, BDF1 mice, survival T/C %
Test: NCI In Vivo Anticancer Drug Screen. Data for tumor model P335 Leukemia (intraperitoneal) in B6D2F1 (BDF1) mice
Conditions: endpoint: mean survival time, higher = longer survival
Method: The antitumor activity of compounds was measured in mice bearing transplantable tumors. Survival or tumor size were measured and the results are expressed as the measurement made in the treated group (T) divided by the measurement made in the vehicle treated control group (C). The tumor model used in this assay is P335 Leukemia (intraperitoneal) in B6D2F1 (BDF1) mice

[1] = dose: 12.5 mg/kg/injection, schedule: Q01DX Z (ip), vehicle: carboxymethylcellulose (CMC)
[2] = dose: 0.25 mg/kg/injection, schedule: Q01DX Z (ip), vehicle: carboxymethylcellulose (CMC)
[3] = dose: 18.75 mg/kg/injection, schedule: Q01DX Z (ip), vehicle: carboxymethylcellulose (CMC)
[4] = dose: 37.5 mg/kg/injection, schedule: Q01DX Z (ip), vehicle: carboxymethylcellulose (CMC)
[5] = dose: 75.0 mg/kg/injection, schedule: Q01DX Z (ip), vehicle: carboxymethylcellulose (CMC)
[6] = dose: 150.0 mg/kg/injection, schedule: Q01DX Z (ip), vehicle: carboxymethylcellulose (CMC)
[7] = dose: 300.0 mg/kg/injection, schedule: Q01DX Z (ip), vehicle: carboxymethylcellulose (CMC)
[8] = dose: 25.0 mg/kg/injection, schedule: Q01DX Z (ip), vehicle: carboxymethylcellulose (CMC)

Measured: T/C

CCN(CC)CCNc1ccc(C)c2sc3ccccc3c(=O)c12
inactive: dose: 0.78 mg/kg/injection, schedule: Q01DX Z (ip), vehicle: methylcellulose (MC) 89 % of control | dose: 6.25 mg/kg/injection, schedule: Q01DX Z (ip), vehicle: methylcellulose (MC) 92 % of control | dose: 50.0 mg/kg/injection, schedule: Q01DX Z (ip), vehicle: methylcellulose (MC) 89 % of control | dose: 100.0 mg/kg/injection, schedule: Q01DX Z (ip), vehicle: methylcellulose (MC) 93 % of control

O=C(O)CCCc1ccc(N(CCCl)CCCl)cc1
inactive: dose: 6.25 mg/kg/injection, schedule: Q01DX Z (ip), vehicle: carboxymethylcellulose (CMC) 89 % of control | [1] 89 % of control

Oc1cc(CN(CCCl)CCCl)c(O)cc1CN(CCCl)CCCl
inactive: dose: 0.24 mg/kg/injection, schedule: Q01DX Z (sc), vehicle: steriod suspending solution 95 % of control | dose: 0.47 mg/kg/injection, schedule: Q01DX Z (sc), vehicle: steriod suspending solution 109 % of control | dose: 0.94 mg/kg/injection, schedule: Q01DX Z (sc), vehicle: steriod suspending solution 103 % of control | dose: 1.87 mg/kg/injection, schedule: Q01DX Z (sc), vehicle: steriod suspending solution 104 % of control | dose: 7.5 mg/kg/injection, schedule: Q01DX Z (sc), vehicle: steriod suspending solution 87 % of control

Nc1nc(N)c2nc(CNc3ccc(C(=O)NC(CCC(=O)O)C(=O)O)cc3)cnc2n1 (configuration not stated)
active: dose: 62.0 micrograms/kg/injection, schedule: Q01DX Z (ip), vehicle: alkali diluted with saline 169 % of control
inactive: dose: 16.0 micrograms/kg/injection, schedule: Q01DX Z (ip), vehicle: alkali diluted with saline 96 % of control | dose: 31.0 micrograms/kg/injection, schedule: Q01DX Z (ip), vehicle: alkali diluted with saline 121 % of control | dose: 63.0 micrograms/kg/injection, schedule: Q01DX Z (ip), vehicle: alkali diluted with saline 96 % of control | dose: 250.0 micrograms/kg/injection, schedule: Q01DX Z (ip), vehicle: alkali diluted with saline 98 % of control

OCC1OC(n2cnc3c(Cl)ncnc32)C(O)C1O (configuration not stated)
inactive: dose: 7.8 mg/kg/injection, schedule: Q01DX Z (ip), vehicle: carboxymethylcellulose (CMC) 101 % of control | dose: 15.6 mg/kg/injection, schedule: Q01DX Z (ip), vehicle: carboxymethylcellulose (CMC) 105 % of control

Cn1cnc([N+](=O)[O-])c1Sc1nc(N)nc2nc[nH]c12
inactive: [2] 93 % of control

C[C@]12C=CC(=O)C=C1CC[C@@H]1[C@@H]2[C@@H](O)C[C@@]2(C)[C@H]1CC[C@]2(O)C(=O)CO
inactive: dose: 2.0 mg/kg/injection, schedule: Q01DX Z (sc), vehicle: steriod suspending solution 97 % of control | dose: 4.0 mg/kg/injection, schedule: Q01DX Z (sc), vehicle: steriod suspending solution 103 % of control and 111 % of control | dose: 8.0 mg/kg/injection, schedule: Q01DX Z (sc), vehicle: steriod suspending solution 101 % of control and 117 % of control | dose: 16.0 mg/kg/injection, schedule: Q01DX Z (sc), vehicle: steriod suspending solution 95 % of control and 117 % of control | dose: 32.0 mg/kg/injection, schedule: Q01DX Z (sc), vehicle: steriod suspending solution 95 % of control

NC(=O)c1cn(C2OC(CO)C(O)C2O)c2ncnc(N)c12 (configuration not stated)
inactive: [2] 101 % of control | dose: 0.5 mg/kg/injection, schedule: Q01DX Z (ip), vehicle: carboxymethylcellulose (CMC) 86 % of control | dose: 16.0 micrograms/kg/injection, schedule: Q01DX Z (ip), vehicle: carboxymethylcellulose (CMC) 110 % of control | dose: 31.0 micrograms/kg/injection, schedule: Q01DX Z (ip), vehicle: carboxymethylcellulose (CMC) 104 % of control | dose: 63.0 micrograms/kg/injection, schedule: Q01DX Z (ip), vehicle: carboxymethylcellulose (CMC) 105 % of control

S=P(N1CC1)(N1CC1)N1CC1
inactive: dose: 0.37 mg/kg/injection, schedule: Q01DX Z (ip), vehicle: saline 107 % of control | dose: 0.75 mg/kg/injection, schedule: Q01DX Z (ip), vehicle: saline 109 % of control | dose: 1.5 mg/kg/injection, schedule: Q01DX Z (ip), vehicle: saline 104 % of control | dose: 3.0 mg/kg/injection, schedule: Q01DX Z (ip), vehicle: saline 112 % of control

CN(C)c1ccc(/C=C\c2ccnc3ccccc23)cc1
inactive: dose: 0.8 mg/kg/injection, schedule: Q01DX Z (ip), vehicle: water 100 % of control | dose: 1.6 mg/kg/injection, schedule: Q01DX Z (ip), vehicle: water 98 % of control | dose: 3.1 mg/kg/injection, schedule: Q01DX Z (ip), vehicle: water 102 % of control | dose: 6.2 mg/kg/injection, schedule: Q01DX Z (ip), vehicle: water 109 % of control

CC(=O)O[C@]1(C(C)=O)CC[C@H]2[C@@H]3C[C@H](C)C4=CC(=O)C=C[C@]4(C)[C@@]3(F)[C@@H](O)C[C@@]21C
inactive: dose: 0.63 mg/kg/injection, schedule: Q01DX Z (sc), vehicle: steriod suspending solution 107 % of control | dose: 1.25 mg/kg/injection, schedule: Q01DX Z (sc), vehicle: steriod suspending solution 98 % of control | dose: 2.5 mg/kg/injection, schedule: Q01DX Z (sc), vehicle: steriod suspending solution 103 % of control | dose: 5.0 mg/kg/injection, schedule: Q01DX Z (sc), vehicle: steriod suspending solution 90 % of control | dose: 10.0 mg/kg/injection, schedule: Q01DX Z (sc), vehicle: steriod suspending solution 119 % of control | dose: 20.0 mg/kg/injection, schedule: Q01DX Z (sc), vehicle: steriod suspending solution 87 % of control

OCC1OC(n2cnc3c(=S)nc[nH]c32)C(O)C1O (configuration not stated)
inactive: dose: 16.0 mg/kg/injection, schedule: Q01DX Z (ip), vehicle: carboxymethylcellulose (CMC) 87 % of control and 90 % of control | dose: 31.0 mg/kg/injection, schedule: Q01DX Z (ip), vehicle: carboxymethylcellulose (CMC) 109 % of control and 110 % of control | dose: 62.5 mg/kg/injection, schedule: Q01DX Z (ip), vehicle: carboxymethylcellulose (CMC) 98 % of control | dose: 125.0 mg/kg/injection, schedule: Q01DX Z (ip), vehicle: carboxymethylcellulose (CMC) 93 % of control

C=CC(CN1CC1)OC(C)=O (configuration not stated)
inactive: dose: 0.47 mg/kg/injection, schedule: Q01DX Z (ip), vehicle: carboxymethylcellulose (CMC) 106 % of control | dose: 0.95 mg/kg/injection, schedule: Q01DX Z (ip), vehicle: carboxymethylcellulose (CMC) 110 % of control | dose: 1.9 mg/kg/injection, schedule: Q01DX Z (ip), vehicle: carboxymethylcellulose (CMC) 103 % of control

O=C1CCC(N2C(=O)c3ccccc3C2=O)C(=O)N1 (configuration not stated)
inactive: dose: 9.4 mg/kg/injection, schedule: Q01DX Z (ip), vehicle: carboxymethylcellulose (CMC) 92 % of control | [3] 86 % of control and 97 % of control | [4] 88 % of control and 90 % of control and 119 % of control | [5] 100 % of control and 102 % of control | [6] 88 % of control and 98 % of control | [7] 86 % of control

O=C(Nc1ccc(C2=NCCN2)cc1)c1ccc(C(=O)Nc2ccc(C3=NCCN3)cc2)c(Cl)c1
active: dose: 15.0 mg/kg/injection, schedule: Q01DX Z (ip), vehicle: water 157 % of control | dose: 30.0 mg/kg/injection, schedule: Q01DX Z (ip), vehicle: water 156 % of control and 206 % of control
inactive: dose: 3.75 mg/kg/injection, schedule: Q01DX Z (ip), vehicle: water 92 % of control | dose: 7.5 mg/kg/injection, schedule: Q01DX Z (ip), vehicle: water 120 % of control | dose: 60.0 mg/kg/injection, schedule: Q01DX Z (ip), vehicle: water 86 % of control

CN(Cc1cnc2nc(N)nc(N)c2n1)c1c(Cl)cc(C(=O)NC(CCC(=O)O)C(=O)O)cc1Cl (configuration not stated)
inactive: [8] 104 % of control and 121 % of control

CS(=O)(=O)OCC(O)C(O)COS(C)(=O)=O (configuration not stated)
inactive: dose: 187.5 mg/kg/injection, schedule: Q01DX Z (ip), vehicle: saline 96 % of control | dose: 375.0 mg/kg/injection, schedule: Q01DX Z (ip), vehicle: saline 111 % of control | dose: 750.0 mg/kg/injection, schedule: Q01DX Z (ip), vehicle: saline 102 % of control

S=P(N1CCOCC1)(N1CC1)N1CC1
inactive: [1] 101 % of control | [8] 93 % of control

COc1ccc(/C=N/NC(N)=S)cc1
inactive: [3] 115 % of control | [4] 108 % of control | [5] 106 % of control | [6] 96 % of control | [7] 115 % of control | dose: 300.0 mg/kg/injection, schedule: Q01DX Z (ip), vehicle: saline 94 % of control | dose: 600.0 mg/kg/injection, schedule: Q01DX Z (ip), vehicle: saline 96 % of control

O=c1cn[nH]c(=O)[nH]1
inactive: dose: 187.5 mg/kg/injection, schedule: Q01DX Z (ip), vehicle: carboxymethylcellulose (CMC) 88 % of control | dose: 375.0 mg/kg/injection, schedule: Q01DX Z (ip), vehicle: carboxymethylcellulose (CMC) 88 % of control | dose: 750.0 mg/kg/injection, schedule: Q01DX Z (ip), vehicle: carboxymethylcellulose (CMC) 98 % of control
